Reference: paper PMC11061149, “Protein mimetic 2D FAST rescues alpha synuclein aggregation mediated early and post disease Parkinson’s phenotypes” (Nature Communications, 2024)

Target: T1, αS PMCA samples (Homo sapiens, UniProt P37840)
T1 construct: made in house; host or cells: E. coli BL21(DE3)
Assay: Proteinase K digestion of PMCA samples
Format: biochemical
Settings: cycle three to cycle five, in the presence of NS132
Description: A Protease K (PK) solution at 50 μg/mL (IBI Scientific, Dubuque, IA) in digestion buffer (10 mM Tris, pH 8.0, 2 mM CaCl2) was diluted (0.1 eq.) into 30 μL of PMCA solution (with or without NS132) and incubated for 30 min at 37 °C. Subsequently, the samples were diluted (1:1, v/v) in SDS Protein Gel Loading Dye 2× (Quality Biological, Gaithersburg, MD) and loaded on Mini-PROTEAN TGX Stain-Free Protein Gel (BioRad, Hercules, CA). The gel was stained using the Fairbanks staining method and imaged using ChemiDoc MP (BioRad, Hercules, CA).

proteinase K (PK) resistance of PMCA samples, in words: completely degraded
SMILES: Cc1ccc(NC(=O)c2ccc(NC(=O)c3ccc([N+](=O)[O-])c(NCCc4c[nH]c5ccccc45)n3)c(NCC3CCCCC3)n2)c(OCC(=O)O)n1 [NS132]
